Measurements taken from ChEMBL document CHEMBL1128034, “Structure activity of topoisomerase i poisons related to hoechst 33342” (Bioorg Med Chem Lett, 1994).

How the values were obtained:
Type in all cases: functional, cell-based
[1] = tested on: RPMI 8402; test: Cytotoxicity towards camptothecin resistant CPT-K5 cell line in human
[2] = tested on: PC-3; test: Cytotoxicity towards prostatic carcinoma (PC3) cells in human
[3] = tested on: RPMI 8402; test: Cytotoxicity towards lymphoblastoma (RPMI 8402) cells in human
[4] = tested on: SK-MEL; test: Cytotoxicity towards melanoma (SK-Mel) cells in human
[5] = tested on: PC-3; test: Cytotoxicity towards prostatic carcinoma (PC3) cells in human; Not active
[6] = tested on: SK-MEL; test: Cytotoxicity towards melanoma (SK-Mel) cells in human; Not active

Row | SMILES | IC50 [1] [µM] | IC50 [2] [µM] | IC50 [3] [µM] | IC50 [4] [µM] | IC50 [5] | IC50 [6]
1 | COc1ccc(-c2nc3cc(-c4nc5cc(N6CCN(C)CC6)ccc5[nH]4)ccc3[nH]2)cc1 | 0.57 | 0.84 | < 0.05 | 1.1 |  | 
2 | COc1ccc(-c2nc3cc(-c4nc5cc(CN(C)C)ccc5[nH]4)ccc3[nH]2)cc1 | 6.3 | 52 | 0.38 | 10 |  | 
3 | CCOc1ccc(-c2nc3cc(-c4nc5cc(N6CCN(C)CC6)ccc5[nH]4)ccc3[nH]2)cc1 | 0.5 | 0.71 | 0.005 | 1.6 |  | 
4 | COc1ccc(-c2nc3cc(-c4nc5cc(CCCN(C)C)ccc5[nH]4)ccc3[nH]2)cc1 | 7.1 | 28 | 1.2 | 10 |  | 
5 | COc1ccc(-c2nc3cc(-c4nc5cc(CCN(C)C)ccc5[nH]4)ccc3[nH]2)cc1 | 6.1 | 43 | 0.61 | 8.5 |  | 
6 | COc1ccc(-c2nc3cc(-c4nc5cc(N)ccc5[nH]4)ccc3[nH]2)cc1 | 14 | 19 | 1.7 | 6.2 |  | 
7 | COc1ccc(-c2nc3cc(-c4nc5cc(N(C)C)ccc5[nH]4)ccc3[nH]2)cc1 | 0.65 | 4.9 | 0.13 | 26 |  | 
8 | COc1ccc(-c2nc3cc(-c4nc5cc([N+](=O)[O-])ccc5[nH]4)ccc3[nH]2)cc1 | 3.9 |  | 0.65 |  | Not Active | Not Active
9 | COc1ccc(-c2nc3cc(-c4nc5cc(OC6CCN(C)CC6)ccc5[nH]4)ccc3[nH]2)cc1 | 0.44 | 0.38 | < 0.04 | 2 |  | 
